The results in this text go back to US11028069B2, “Salt of substituted piperidine compound” (TAIHO PHARMACEUTICAL CO., LTD., priority 2016, dated 2021).

The nature of series [1]: Absorption test, oral administration to mice, plasma concentration by LC/MS. The class given is in vivo. Conditions: BALB/cA mice, 50 mg/kg in terms of Compound 1, suspended in 0.5% HPMC. As to the method:
The hydrochloride salt of Compound 1 was suspended in 0.5% HPMC, and orally administered to BALB/cA mice at 50 mg/kg in terms of the dose of Compound 1. At 0.5, 1, 2, 4, and 6 hours after the oral administration, the blood was collected from the eyeground, and the plasma was obtained. The compound concentration in the obtained plasma was measured by LC/MS (Agilent Technologies Inc. Agilent 1200, AB Sciex Pte. Ltd. AB Sciex API400) and the oral absorption was evaluated.

A short description of series [2]: Solubility measurement, Japanese Pharmacopoeia Dissolution test. Particulars: crystals; for solubility, 1st fluid for dissolution test: Japanese Pharmacopoeia 1st fluid for dissolution test; for solubility, 2nd fluid for dissolution test: Japanese Pharmacopoeia 2nd fluid for dissolution test. The class given is physicochemical. Here is the method:
The solubility measurement was conducted on the hydrochloride salt, the mesylate salt, the potassium salt, and the sodium salt of Compound 1 and the free form of Compound 1. Specifically, the solubility of the samples: the crystals of the hydrochloride salt of Compound 1 produced in Example 1; the crystals of the mesylate salt of Compound 1 produced in Comparative Example 1; the crystals of the potassium salt of Compound 1 produced in Comparative Example 2; the crystals of the sodium salt of Compound 1 produced in Comparative Example 3; and the crystal of the free form of Compound 1, in the 1st and 2nd fluids for dissolution test according to Japanese Pharmacopoeia was measured according to Japanese Pharmacopoeia, Dissolution test.

Series [3] can be described thus: Stability test (solid change) by DSC measurement. Type of series: physicochemical. Particulars: crystals, 10° C./min, room temperature to 300° C. Here is the method: The DSC measurement was conducted according to the following test conditions. • Equipment: TA Instruments Q1000 • Sample: about 5 mg • Rate of temperature increase: 10° C./min • Measurement temperature: Room temperature to 300° C.

Series [4] can be described thus: Dynamic vapor sorption system (DVS) analysis (hygroscopicity). Type of series: physicochemical. Conditions: increase of humidity from 5% to 75% RH, 25° C. Here is the method:
The dynamic vapor sorption system (DVS) analysis was conducted under the following conditions. • Equipment: TA Instruments VTI SGA-100 • Sample: about 10 mg • Measurement temperature: 25° C. • RH steps: 5-95-1% RH by 5% RH
The hygroscopicity of the hydrochloride salt of Compound 1 obtained in Example 1 and the potassium salt obtained in Comparative Example 2 was examined by dynamic vapor sorption system (DVS) analysis. The adsorption and desorption data was collected at 5% relative humidity (RH) intervals in the range of 5% to 95% RH. Before the measurement, the temperature was increased at 1° C./min to 25° C. under nitrogen purging and the salts were dried for up to 6 hours until the weight change in 5 minutes became less than 0.0100%. At the time of the measurement, up to 2 hours of equilibration was conducted until the weight change in 5 minutes became less than 0.0100%.

A short description of series [5]: Stability test (purity) by liquid chromatography after storage. Particulars: for purity (%) in samples, 40° C. (open system): crystals left at 40° C. (open system) for 1 month; for purity (%) in samples, 60° C. (open system): crystals left at 60° C. (open system) for 1 month; for purity (%) in samples, under light irradiation: crystals left under light irradiation (1200000 Lux·hr) for 1 month; for purity (%) in samples, before starting test: crystals. Type of series: physicochemical. As to the method:
The measurement by liquid chromatography was conducted according to the following test conditions. • Equipment: Agilent Technologies, Inc., 1200 Series Binary LC System • Mobile phase A: 10 mM Na2HPO4 aqueous solution (pH 6.5) • Mobile phase B: Acetonitrile • Gradient: described in Table 1 • Column: Ascentis Express C18, 150 mm×4.6 mm i.d., 2.7 μm • Measurement wavelength: 210 nm
The crystals of the hydrochloride salt, the mesylate salt, the potassium salt, the sodium salt, and the free form of Compound 1 obtained in Example 1 and Comparative Examples 1 to 4 were each left under conditions at 40° C. (open system), at 60° C. (open system), and under light irradiation (1200000 Lux·hr) for 1 month. Subsequent measurement of purity by liquid chromatography indicated the purity change between before and after the test was 0.2% or less in any of the conditions.

Molecules are shown by their SMILES. Structures can show the parent of a compound that is named as a salt.

On to `Cc1cc(Nc2nc(CC3(C(=O)O)CCN(C(=O)c4cccc(Cl)c4Cl)CC3)ccc2F)n[nH]1` [Free form, 1-(2,3-dichlorobenzoyl)-4-((5-fluoro-6-(5-methyl-1H-pyrazol-3-ylamino)pyridin-2-yl)methyl)piperidine-4-carboxylic acid], for which, in series [1], the “Plasma concentration AUC0-6 h” value came to 0.43 µM·h. Further, in series [2], the “solubility, 1st fluid for dissolution test” value (from here on “solubility, 1st fluid”) came out at 24 µg/mL and the “solubility, 2nd fluid for dissolution test” value (“solubility, 2nd fluid” below) worked out at 6 µg/mL. Also, the “DSC chart: endothermic and exothermic processes at relatively low temperatures (solid change)” value in series [3] was “such charts were not obtained”.
For the molecule `Cc1cc(Nc2nc(CC3(C(=O)O)CCN(C(=O)c4cccc(Cl)c4Cl)CC3)ccc2F)n[nH]1` [Hydrochloride salt, 1-(2,3-dichlorobenzoyl)-4-((5-fluoro-6-(5-methyl-1H-pyrazol-3-ylamino)pyridin-2-yl)methyl)piperidine-4-carboxylic acid], the “weight change in DVS analysis” value in series [4] (listed as hydrochloride salt of Compound 1) is “less than 0.5%”. Besides, the “weight change in DVS analysis” value in series [4] (listed as hydrochloride salt of the present invention) was “less than 0.5%”. Further, the “Plasma concentration AUC0-6 h” value in series [1] is 18.2 µM·h. In series [2], the “solubility, 1st fluid” value is over 1000 µg/mL and the “solubility, 2nd fluid” value was over 1000 µg/mL. In addition, the “DSC chart: endothermic and exothermic processes at relatively low temperatures (solid change)” value in series [3] is “such charts were not obtained”. Further, in series [5], the “purity (%) in samples, 40° C. (open system)” value came out at 99.2%; the “purity (%) in samples, 60° C. (open system)” value stood at 99.3%; the “purity (%) in samples, under light irradiation” value is reported as 99.4%; the “purity (%) in samples, before starting test” value turned out to be 99.4%.
In the case of `Cc1cc(Nc2nc(CC3(C(=O)O)CCN(C(=O)c4cccc(Cl)c4Cl)CC3)ccc2F)n[nH]1` [Mesylate salt, 1-(2,3-dichlorobenzoyl)-4-((5-fluoro-6-(5-methyl-1H-pyrazol-3-ylamino)pyridin-2-yl)methyl)piperidine-4-carboxylic acid], in series [2], the “solubility, 1st fluid” value was determined as 490 µg/mL and the “solubility, 2nd fluid” value was 420 µg/mL. Moreover, the “DSC chart: endothermic and exothermic processes at relatively low temperatures (solid change)” value in series [3] is “such charts were not obtained”.
As to `Cc1cc(Nc2nc(CC3(C(=O)O)CCN(C(=O)c4cccc(Cl)c4Cl)CC3)ccc2F)n[nH]1` [Potassium salt, 1-(2,3-dichlorobenzoyl)-4-((5-fluoro-6-(5-methyl-1H-pyrazol-3-ylamino)pyridin-2-yl)methyl)piperidine-4-carboxylic acid], the “weight change in DVS analysis” value in series [4] is given as “exceeded 14%”. Further, in series [2], the “solubility, 1st fluid” value was over 1000 µg/mL and the “solubility, 2nd fluid” value was determined as 730 µg/mL. The “DSC chart: endothermic and exothermic processes at relatively low temperatures (solid change)” value in series [3] is “charts suggesting endothermic and exothermic processes at relatively low temperatures were obtained”. Moreover, in series [5], the “purity (%) in samples, 40° C. (open system)” value was 99.7%; the “purity (%) in samples, 60° C. (open system)” value stood at 99.8%; the “purity (%) in samples, under light irradiation” value amounted to 99.8%; the “purity (%) in samples, before starting test” value is reported as 99.8%.
`Cc1cc(Nc2nc(CC3(C(=O)O)CCN(C(=O)c4cccc(Cl)c4Cl)CC3)ccc2F)n[nH]1` [Sodium salt, 1-(2,3-dichlorobenzoyl)-4-((5-fluoro-6-(5-methyl-1H-pyrazol-3-ylamino)pyridin-2-yl)methyl)piperidine-4-carboxylic acid]: the “weight change in DVS analysis” value in series [4] (listed as sodium salt of Compound 1) is at least 40%. In addition, in series [2], the “solubility, 1st fluid” value was over 1000 µg/mL and the “solubility, 2nd fluid” value is over 1000 µg/mL. In series [3], the “DSC chart: endothermic and exothermic processes at relatively low temperatures (solid change)” value was “charts suggesting endothermic and exothermic processes at relatively low temperatures were obtained”.
